This is an account of results in PubChem BioAssay (NCI).

Several values for one entry are separate records, joined by “and”; a condition that tells them apart may be missing. Identical values can stand only once.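 Grown in 96-well plates, cells were treated for 48 hours with each compound at five concentrations. Insufficient inhibition: endpoint recorded as highest concentration tested. The concentration for 50% growth inhibition is given as GI50. TGI denotes the concentration required for complete inhibition of growth.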 A value given as a limit tells only on which side of the number the result lay.

Some test systems named below: ACHN renal; MOLT-4 leukemia; NCI-H522 lung; OVCAR-5 ovarian; SF-539 CNS; SK-MEL-28 melanoma; SK-OV-3 ovarian; SR leukemia; UACC-257 melanoma; UACC-62 melanoma.
What all share (assay): DTP human tumour cell line panel, 48 h

As to `CO[C@@H]1[C@H](OC(=O)NC(=O)CCl)CC[C@]2(CO2)[C@H]1[C@@]1(C)O[C@@H]1CC=C(C)C`, the GI50 (usually the concentration at which growth is held to half of that of the control) was 7.3 µM with ACHN renal; 3310 nM in the assay with MOLT-4 leukemia; 1.23 µM and 7.41 µM in the assay with NCI-H522 lung; 3.44 µM with OVCAR-5 ovarian; 21.3 µM with SF-539 CNS; 18.9 µM with SK-MEL-28 melanoma. Moreover, the GI50 with SK-OV-3 ovarian is 2.52 µM and 20.8 µM; with SR leukemia it was 6.76 µM; in the assay on UACC-257 melanoma, 8.41 µM; in the assay on UACC-62 melanoma, 6.21 µM and 4.01 µM. The total growth inhibition concentration (TGI) (in general, the concentration at which net growth stops) in the assay with ACHN renal was 30.8 µM and 37.5 µM; with MOLT-4 leukemia, 28.2 µM and 8.2 µM; in the assay on NCI-H522 lung it was 3.99 µM and 16.8 µM and 33.8 µM; in the assay with OVCAR-5 ovarian it was 35.2 µM; in the assay on SF-539 CNS, 23.8 µM and 46.9 µM; in the assay with SK-MEL-28 melanoma, 32.8 µM and 47.9 µM. For the same compound, the total growth inhibition concentration (TGI) was 39.5 µM and 59.2 µM with SK-OV-3 ovarian; 39.4 µM in the assay with SR leukemia; 28 µM in the assay with UACC-257 melanoma; 26 µM and 24.1 µM in the assay on UACC-62 melanoma.
Consider `C=C1C(=O)O[C@H]2[C@H]1CC/C(COC(=O)NCc1c[nH]c3ccc(Cl)cc13)=C\CC[C@@]1(C)O[C@@H]21`, for which the GI50 with ACHN renal is 1.33 µM; with MOLT-4 leukemia, 1340 nM; with NCI-H522 lung, 0.527 µM; in the assay on OVCAR-5 ovarian it was 1.77 µM; with SF-539 CNS, 1.58 µM; with SK-MEL-28 melanoma it was 1.69 µM. In addition, the GI50 was 5.75 µM with SK-OV-3 ovarian, 0.357 µM with SR leukemia, 1.63 µM in the assay with UACC-257 melanoma and 1.34 µM in the assay on UACC-62 melanoma. Besides, the concentration for total growth inhibition (TGI) in the assay with ACHN renal is 2.61 µM; in the assay on MOLT-4 leukemia it was 4.91 µM; in the assay on NCI-H522 lung, 2.05 µM; with OVCAR-5 ovarian, 4.01 µM; in the assay with SF-539 CNS, 3.04 µM; in the assay with SK-MEL-28 melanoma it was 3.29 µM. Besides, the concentration for total growth inhibition (TGI) in the assay on SK-OV-3 ovarian is 18.9 µM; with SR leukemia it was 3.88 µM; in the assay on UACC-257 melanoma it was 3.11 µM; in the assay with UACC-62 melanoma, 2.76 µM.
As to `CN(C)CCCc1c[nH]c2ccccc12`, the TGI in the assay with ACHN renal, in the assay on MOLT-4 leukemia, with NCI-H522 lung, in the assay on OVCAR-5 ovarian, in the assay on SF-539 CNS and with SK-MEL-28 melanoma was more than 100 µM in each case. Moreover, the concentration for total growth inhibition (TGI) in the assay on SK-OV-3 ovarian, in the assay with SR leukemia, with UACC-257 melanoma and in the assay with UACC-62 melanoma was more than 100 µM in each case.
For `CC(C)(C)c1ccc(C(O)c2ccc(C(C)(C)C)cc2)cc1`, the TGI is 30.2 µM with ACHN renal; 39.2 µM in the assay on MOLT-4 leukemia; 22 µM in the assay on NCI-H522 lung; 30.5 µM in the assay on OVCAR-5 ovarian; 31.5 µM in the assay with SF-539 CNS; 30.8 µM in the assay on SK-MEL-28 melanoma. For the same compound, the TGI turned out to be 27.8 µM with SK-OV-3 ovarian, 41.7 µM with SR leukemia, 34 µM with UACC-257 melanoma and 30.2 µM with UACC-62 melanoma.
With `COc1ccc(C(c2c(O)c3ccccc3n(C)c2=O)c2c(O)c3ccccc3n(C)c2=O)cc1`, the total growth inhibition concentration (TGI) was more than 100 µM in the assay with ACHN renal; more than 100 µM in the assay with MOLT-4 leukemia; 60 µM with NCI-H522 lung; more than 100 µM in the assay on OVCAR-5 ovarian; 63.3 µM in the assay with SF-539 CNS; more than 100 µM in the assay on SK-MEL-28 melanoma. The TGI in the assay with SK-OV-3 ovarian is more than 100 µM; in the assay with SR leukemia, more than 100 µM; with UACC-257 melanoma, 46.4 µM; in the assay on UACC-62 melanoma it was 98 µM.
For the compound `C[C@H]1[C@H](C)CC[C@]2(C(=O)O)CC[C@]3(C)C(=CC[C@@H]4[C@@]5(C)C/C(=C/c6ccco6)C(=O)C(C)(C)[C@@H]5CC[C@]43C)[C@H]12`, the GI50 in the assay with ACHN renal was 3.6 µM; in the assay with MOLT-4 leukemia, 3170 nM; with NCI-H522 lung it was 6.35 µM; in the assay with OVCAR-5 ovarian, 7.59 µM; with SF-539 CNS, 4.67 µM; with SK-MEL-28 melanoma, 4.81 µM. Further, the GI50 in the assay with SK-OV-3 ovarian is 5.83 µM; with SR leukemia, 4.12 µM; in the assay with UACC-257 melanoma, 6.49 µM; with UACC-62 melanoma, 2.86 µM. The TGI with ACHN renal is 13.5 µM; with MOLT-4 leukemia it was 14 µM; in the assay with NCI-H522 lung, 23.6 µM; in the assay with OVCAR-5 ovarian, 21 µM; in the assay on SF-539 CNS, 16.8 µM; in the assay on SK-MEL-28 melanoma, 17.5 µM. Also, the TGI in the assay on SK-OV-3 ovarian is 33.9 µM; with SR leukemia, 50.8 µM; in the assay on UACC-257 melanoma it was 29.1 µM; in the assay on UACC-62 melanoma, 13 µM.
In the case of `CSc1nc2sc3cc(Cl)ccc3n2c(=N)c1C#N`, the GI50 in the assay on ACHN renal was more than 62.2 µM; in the assay with MOLT-4 leukemia, 2200 nM; with NCI-H522 lung, 62.7 µM; in the assay on OVCAR-5 ovarian, more than 62.7 µM; in the assay on SF-539 CNS it was 15.2 µM; in the assay on SK-MEL-28 melanoma it was 11.6 µM. Further, the GI50 with SK-OV-3 ovarian was 12.5 µM; with SR leukemia, 17.6 µM; in the assay with UACC-257 melanoma it was 6.05 µM; with UACC-62 melanoma, 17.7 µM. The TGI in the assay on ACHN renal is more than 100 µM; in the assay on MOLT-4 leukemia, more than 23.6 µM; in the assay on NCI-H522 lung, more than 100 µM; in the assay with OVCAR-5 ovarian it was more than 100 µM; with SF-539 CNS it was more than 100 µM; with SK-MEL-28 melanoma, more than 100 µM. Moreover, the total growth inhibition concentration (TGI) in the assay on SK-OV-3 ovarian, with SR leukemia, in the assay with UACC-257 melanoma and in the assay with UACC-62 melanoma was more than 100 µM throughout.
For `Cc1ccc(S(=O)(=O)N2CCc3ccc(O)c4c3C2Cc2cc(Cl)ccc2-4)cc1` (stereo not given), the GI50 was 2.06 µM in the assay on ACHN renal; 1510 nM with MOLT-4 leukemia; 0.827 µM in the assay on NCI-H522 lung; 2.02 µM with OVCAR-5 ovarian; 0.792 µM in the assay on SF-539 CNS; 1.68 µM in the assay on SK-MEL-28 melanoma. For the same compound, the GI50 with SK-OV-3 ovarian was 1.11 µM; in the assay with SR leukemia, 1.06 µM; in the assay on UACC-257 melanoma it was 1.45 µM; in the assay with UACC-62 melanoma, 0.962 µM. Also, the TGI in the assay on ACHN renal amounted to 23.5 µM; in the assay on MOLT-4 leukemia, 10.2 µM; in the assay with NCI-H522 lung, 2.29 µM; in the assay with OVCAR-5 ovarian, 16.5 µM; with SF-539 CNS it was 2.83 µM; in the assay on SK-MEL-28 melanoma it was 5.84 µM. Besides, the TGI was 3.75 µM in the assay with SK-OV-3 ovarian, 4.26 µM in the assay on SR leukemia, 7.08 µM with UACC-257 melanoma and 3.77 µM with UACC-62 melanoma.
